Laboratory results from patent US4368194A, “Pharmacologically active amine boranes” (The United States of America as represented by the …, priority 1981, dated 1983).
Where two headings read alike, the source gives them in different places.

How the values were obtained:
[1] = system: carrageenan induced edema in mouse foot pads; test: Anti-inflammatory screen (carrageenan induced foot edema); type: in vivo, mice; conditions: for Anti-inflammatory Screen: 10 mg/kg × 2 intraperitoneally, mice; for inhibition of the carrageenan induced edema in mouse foot pads: text summary of Table II
Experimental: CF1 male mice (about 30 g) were administered test drugs at 10 mg/kg in 0.05% polysorbate .80-water intraperitoneally 3 hr and 30 min prior to 0.05 ml of 2% carrageenan in 0.9% saline injected into the plantar surface of the right hind foot. Saline injected into the left hind foot served as a base line. After 3 hr, both feet were excised at the tibiotarsal (ankle) joint according to the modified (Roszkowski et al., J. Pharm. Exp. Ther., 179, 114 1971) method of Winter, resulting in an 87 mg net increase in the weight of the control animals' feet.

CF1 male mice = test: Writhing reflex (acetic acid); type: in vivo; conditions: for Writhing Reflex: 20 mg/kg intraperitoneally, mice
Experimental: CF1 male mice were administered test drugs at 20 mg/kg intraperitoneally 20 min (see Hendershat et al., J. Pharmacol Exp. Ther. 125, 237 1959) prior to the administration of 0.5 ml of 0.6% acetic acid (Vingar et al., European J. PHarmacol, 37, 23 1976). After 5 min the number of stretches, characterized by repeated contractures of the abdominal musculature accompanied by extension of the hind limbs, was counted for the next 10 min. The control mice had 78 stretch reflexes per 10 min.

Acid phosphatase [2] = test: Lysosomal free acid phosphatase activity, liver homogenate; type: biochemical, rats; conditions: 5 μmoles, in vitro; 20 min
Experimental: (§1) Lysosomal enzymatic assays - Sprague Dawley rats (about 160 g) were sacrificed, the liver excised, and a 10% homogenate (4x) in 0.25 M sucrose and 0.001 M (ethylenedinitrilo) tetra acetic acid, ph 7.2 was prepared.
(§2) Acid phosphatase activity (Gianetto et al., Biochem J., 59, 433 1955) was carried out by incubating with 0.1 Mβ-glycerol phosphate in 0.1 M acetate, pH 5.0 with 5 μmoles of test drugs in 1% carboxymethylcellulose (CMC) for 20 min with liver homogenate and 60 min with resuspended PMNs. Lysosome enzymes were released by 0.02% alkyl phenoxy polyethoxy ethanol-100 to obtain the total enzymatic activity. The reaction was stopped with 10% trichloroacetic acid and the solution centrifuged. Aliquots of the supernatant were assayed for inorganic phophate content by the method of Chen et al., Anal Chem., 28, 1756 (1956). Percent free acid phosphatase was calculated. Cathepsin activity was determined in an analagous manner except the substrate used was 2% azocasein (Schleuning et al., Methods in Enzymology, XLV, 330 1976) in 0.1 M acetate buffer pH 5.0. The supernatant was assayed for acid soluble peptide fragments at 366 nm. Percent free cathepsin activity was calculated.

Cathepsin [3] = test: Lysosomal free cathepsin activity, liver homogenate; type: biochemical, rats; conditions: 5 μmoles; for Liver % Free Cathepsin Activity, pH5: in vitro, 20 min
Experimental: as §1, §2

Acid phosphatase [4] = test: Lysosomal free acid phosphatase activity, PMNs; type: cell-based; conditions: 5 μmoles, in vitro; 60 min
Experimental: (§3) Polymorphonuclear neutrophils (PMNs) were collected from the peritoneal cavity four hr after the injection of 35 ml of 0.5% oyster glycogen in isotonic saline (Orange et al., J. Exp. Med., 127, 767 1968). The PMNs were centrifuged down at 800 g for 20 min, washed, and resuspended in minumen essential medium (MEM) with 10% fetal calf serum pH 7.4.
as §2

Cathepsin [5] = test: Lysosomal free cathepsin activity, PMNs; type: cell-based; conditions: 5 μmoles; for PMNs % Free Cathespin Activity, pH5: in vitro, 60 min
Experimental: as §3, §2

cAMP levels in PMNs = test: Cyclic-3',5'-adenosine monophosphate levels (cAMP) in PMNs; type: cell-based; conditions: 1 h
Experimental: as §3
Isolated PMNs were incubated with test drugs at 5μ moles for 1 hr at 37° C. in MEM at pH 7.4. The reaction was stopped with 6% trichloroacetic acid. The cyclic-3',5'-adenosine monophosphate levels were determined by the radioimmunoassay of Gilman, Proc. Natl. Acad. Sci. (USA), 67, 305 (1970), using 3H(G)-cyclic-3',5'-adenosine monophosphate (39.8 Cu/m mol). Results were calculated in p mole/10^7 PMNs cells.

[6] = target: T1, prostaglandin synthetase from beef seminal vesicle (Bos taurus, UniProt O62664); test: Prostaglandin synthetase activity; type: biochemical; conditions: 10^-6 M; for inhibition at 1 µM: read-out: inhibition of prostaglandin synthesis; for activity at 1 µM: 1 h, read-out: Prostaglandin Synthesis
T1 construct: purchased; host or cells: beef seminal vesicle
T1 sequence (O62664 25-600): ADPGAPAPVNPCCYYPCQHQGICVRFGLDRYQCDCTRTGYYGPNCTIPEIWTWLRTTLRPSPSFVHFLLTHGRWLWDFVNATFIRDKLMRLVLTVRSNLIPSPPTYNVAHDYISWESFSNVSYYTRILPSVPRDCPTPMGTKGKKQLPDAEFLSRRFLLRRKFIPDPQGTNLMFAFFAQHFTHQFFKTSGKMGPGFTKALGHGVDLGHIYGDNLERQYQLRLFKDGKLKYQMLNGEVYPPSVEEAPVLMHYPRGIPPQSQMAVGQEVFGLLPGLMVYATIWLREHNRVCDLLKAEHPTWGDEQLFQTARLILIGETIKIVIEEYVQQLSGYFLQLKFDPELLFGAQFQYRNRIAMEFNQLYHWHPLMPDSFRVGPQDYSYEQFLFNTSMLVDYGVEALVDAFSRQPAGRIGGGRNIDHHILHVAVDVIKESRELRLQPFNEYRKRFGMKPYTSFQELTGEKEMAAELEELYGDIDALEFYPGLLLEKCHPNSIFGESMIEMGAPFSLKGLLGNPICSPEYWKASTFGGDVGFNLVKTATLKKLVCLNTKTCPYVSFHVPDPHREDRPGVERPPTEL
Experimental: After 1 hr at 37° C. the reaction was stopped with 1 N HCl and extracted with ethyl ether and evaporated. […] The plates were dried and developed in iodine vapor and with the use of prostaglandin standards the appropriate areas were scraped and counted for ^3 H content. Indometacin was used as a standard at 10^-4 M concentration. Test drugs were used at 10^-6 M.

liver mitochondria [7] = test: Oxidative phosphorylation, succinate as substrate; type: biochemical, rats; conditions: 5 μmoles; for Oxidative Phosphorylation Succinate State 3: ADP stimulated respiration; for Oxidative Phosphorylation Succinate State 4: basal respiration
Experimental: (§4) Basal and adenosine diphosphate stimulated respiration on 10% liver homogenates was measured using succinate or αketoglutarate as substrate. See Glatt, et al., supra. The reaction vessel contained sucrose 55μ moles, KCl 22μ moles, K2 HPO4 22μ moles, test compounds at 5μ moles in 1% CMC and sodium succinate 90μ moles or αketoglutarate 60μ moles in a total volume of 1.8 ml. […] The rate of respiration was calculated at μl of O2 consumed/hr/mg wet weight of liver.

liver mitochondria [8] = test: Oxidative phosphorylation, α-ketoglutarate as substrate; type: biochemical, rats; conditions: 5 μmoles; for Oxidative Phosphorylation α Ketoglutarate State 3: ADP stimulated respiration; for Oxidative Phosphorylation α Ketoglutarate State 4: basal respiration
Experimental: as §4

in vivo = conditions: mouse
[9] = pH 7.4, read-out: PMNs cAMP Level

| Compound | Anti-inflammatory Screen [1] [% Control] | inhibition of the carrageenan induced edema in mouse foot pads [1] | Writhing Reflex (CF1 male mice) [% Control] | Liver % Free Acid Phosphatase Activity, pH5 (Acid phosphatase [2]) [% Control] | Liver % Free Cathepsin Activity, pH5 (Cathepsin [3]) [% Control] | PMNs % Free Acid Phosphatase Activity, pH5 (Acid phosphatase [4]) [% Control] | PMNs % Free Cathespin Activity, pH5 (Cathepsin [5]) [% Control] | activity at 5 µmol (cAMP levels in PMNs; [9]) [%] | inhibition at 1 µM [6] [%] | activity at 1 µM [6] [%] | Oxidative Phosphorylation Succinate State 3 (liver mitochondria [7]) [% Control] | Oxidative Phosphorylation Succinate State 4 (liver mitochondria [7]) [% Control] | uncoupling with α-ketoglutarate as substrate (liver mitochondria [8]) | Oxidative Phosphorylation α Ketoglutarate State 3 (liver mitochondria [8]) [% Control] | Oxidative Phosphorylation α Ketoglutarate State 4 (liver mitochondria [8]) [% Control] | LD50 (in vivo) [mg/kg] | also measured |
| --- | --- | --- | --- | --- | --- | --- | --- | --- | --- | --- | --- | --- | --- | --- | --- | --- | --- |
| C[NH+](C)[BH2-]C#N [VI, (CH3)2 NH.BH2 CN] | 49 | at least 50% | 24 | 73 ± 4 | 32 ± 5 | 89 ± 4 | 22 ± 1 | 98 | > 30 | 63 ± 4 | 61 ± 5 | 126 ± 19 | uncoupling | 45 ± 12 | 128 ± 25 | 39 | inhibition of the writhing reflex (CF1 male mice; text summary of Table II): 70% |
| C[N+](C)([BH2-]C#N)CC[N+](C)(C)[BH2-]C#N [XI, N,N,N^1,N^1 -Tetramethylethylenediamine-bis(cyanoborane)] | 95 | – | 76 | 80 ± 6 | 50 ± 7 | 84 ± 5 | 16 ± 5 | 94 | – | 85 ± 4 | 122 ± 13 | 116 ± 8 | – | 106 ± 21 | 168 ± 38 | 200 | inhibition of PMN cathepsin activity (Cathepsin [5]): at least 82% |
| C[N+](C)([BH2-]C(=O)O)CC[N+](C)(C)[BH2-]C(=O)O [XII, N,N,N^1,N^1 -Tetramethylethylenediamine-bis(carboxyborane)] | 58 | at least 40% | 54 | 69 ± 5 | 23 ± 6 | 84 ± 4 | 52 ± 4 | – | > 30 | 60 ± 6 | 57 ± 16 | 80 ± 11 | uncoupling | 48 ± 30 | 122 ± 15 | > 1000 | inhibition of free proteolytic cathepsin activity of liver (Cathepsin [3]): at least 75%; activity at 5 µmol (cAMP levels in PMNs; pH 7.4, 5 μmoles, in vitro, read-out: PMNs cAMP Level): 155%; activation at 5 µmol (cAMP levels in PMNs; in vitro incubation, 5 μmoles, read-out: increase of cyclic adenosine monophosphate levels in PMNs): 55%; both states 3 and 4 respiration with succinate (liver mitochondria [7]): inhibited |
